# According to patent US11629354B2, “Grain with increased nicotianamine” (The United States of America, as represented by the …, priority 2020, dated 2023):
# Tests used:
# Type in all cases: in vivo, chicken
# [1] = Intraamniotic administration: Fe and Zn concentration in blood serum and liver; conditions: relative to unchelated Fe (Fe) and non-injected groups
# Description: (§1) To generate extracts for administration, wheat flours (CE-OsNAS2, hereinafter “biofortified”; and NS, hereinafter “control”) were mixed in dH2O (50 g/L), filtered (600 μm) and centrifuged, and the resulting supernatant was dialyzed (MWCO 12-14 kDa, Medicell International Ltd., London, UK) exhaustively against dH2O (48 hrs). The dialysate was lyophilized, and the resulting powder dissolved in 18MΩ H2O (0.05 g/mL) forming the white wheat flour extracts for intra-amniotic administration. Iron solutions were prepared by combining an Fe standard (1000 μg/mL, 2% HCl, High-Purity Standards, Charleston, S.C., USA) with either 18MΩ H2O (Fe), or 1.6 mM NA (Toronto Research Chemicals Inc., Toronto, Canada) dissolved in 18MΩ H2O (Fe-NA). The Fe-EDTA solution was achieved by combining ferric nitrate (Fe(NO3)3 9H2O, Sigma, St. Louis, Mo., USA) with hydroxyethyl ethylenediamine triacetic acid (H3HEDTA, Sigma, St. Louis, Mo., USA) dissolved in sodium hydroxide (NaOH, Sigma, St. Louis, Mo., USA) to represent an anionic chelate of dissolved NaFeEDTA with final Fe concentration of 77 μM.
# Cornish-cross fertile broiler eggs (n=70) were obtained from a commercial hatchery (Moyer's chicks, Quakertown, Pa., USA) and incubated until hatching. All methods were performed in accordance with the relevant guidelines and regulations. […]
# intestinal villi = assay: Intraamniotic administration: intestinal functionality (goblet cell number, villi length and width)
# Description: as §1
# For intraamniotic administration, eggs (n=40) containing viable embryos were weighed and randomly assigned to seven groups (n≥5) based on weight distribution. At day 17 of incubation, extracts/Fe solutions (1 mL) were injected into the amniotic fluid via a 21-gauge needle for the seven treatment groups as follows: (1) non-injected (NI); (2) 18MΩ H2O (H2O); (3) Fe solution (Fe); (4) Fe-EDTA solution (Fe-EDTA); (5) Fe-NA solution (Fe-NA); (6) Control white flour extract (C WF); (7) Biofortified white flour extract (B WF) and eggs were subsequently incubated for four days until hatch. Chicks were euthanized by CO2 exposure after hatching and all tissues were collected.
# Intestinal functionality and short-chain fatty acid (SCFA) analysis. […] Samples were quantified via GC-MS using a TRACE™ 1310 gas chromatograph (Thermo Fisher Scientific, Waltham, Mass., USA) and a TraceGOLD™ TG-WaxMS A column (Thermo Fisher Scientific, Waltham, Mass., USA).
# [2] = system: Lactobacillus, Bifidobacterium, Escherichia, and Clostridium; assay: Intraamniotic administration: cecal microbial population analysis
# Description: To generate extracts for administration, wheat flours (CE-OsNAS2, hereinafter “biofortified”; and NS, hereinafter “control”) were mixed in dH2O (50 g/L), filtered (600 μm) and centrifuged, and the resulting supernatant was dialyzed (MWCO 12-14 kDa, Medicell International Ltd., London, UK) exhaustively against dH2O (48 hrs). The dialysate was lyophilized, and the resulting powder dissolved in 18MΩ H2O (0.05 g/mL) forming the white wheat flour extracts for intra-amniotic administration. Iron solutions were prepared by combining an Fe standard (1000 μg/mL, 2% HCl, High-Purity Standards, Charleston, S.C., USA) with either 18MΩ H2O (Fe), or 1.6 mM NA (Toronto Research Chemicals Inc., Toronto, Canada) dissolved in 18MΩ H2O (Fe-NA). […]
# Microbial population analysis. Lactobacillus, Bifidobacterium, Escherichia, and Clostridium density in intraamniotic administration treatment groups was determined as follows: in brief, cecal contents were homogenized with phosphate-buffered saline (PBS, 9 ml), centrifuged and the pellet resuspended in ethylenediaminetetraacetic acid (EDTA, 50 mM) and treated (37° C., 45 min) with lysozyme (10 mg/mL, Sigma Aldrich CO., St. Louis, Mo., USA). […]
# [3] = relative to other treatment groups
substance,measurement,setting,value
Fe-EDTA,Blood serum Fe concentration,[1],significantly elevated
same,Intestinal villi width,intestinal villi; relative to all treatment groups,increased significantly
same,Goblet cell number in intestinal villi,intestinal villi; [3],decreased significantly
same,Intestinal villi length,intestinal villi; [3],increased significantly
same,abundance of Clostridium in cecum,[2]; relative to C-WF,significantly increased
same,abundance of Escherichia in cecum,[2]; relative to Fe-NA,significantly increased
